Results from PubChem BioAssay AID298 (DTP/NCI, 2004).
“And” between values parts separate entries of the source, which are not always exact repeats. Equal entries are not always repeated. Inconclusive results are not listed.

Tested on: MX-1 breast xenograft, intrarenal, nude mice, tumor weight
Test: NCI In Vivo Anticancer Drug Screen. Data for tumor model Human Mammary Carcinoma MX-1 Xenograft (intrarenal inoculation) in NU/NU BALB/C (nude) mice
Settings: endpoint: mean tumor weight change, higher = larger tumour
Outline: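 Antitumor activity is expressed as a T/C ratio. The treated group's tumor size or survival is compared against the vehicle-treated control group in mice bearing transplanted tumors.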

[1] = dose: 150.0 mg/kg/injection, schedule: Q04DX003 (ip), vehicle: water
[2] = dose: 300.0 mg/kg/injection, schedule: Q04DX003 (ip), vehicle: water
[3] = dose: 600.0 mg/kg/injection, schedule: Q04DX003 (ip), vehicle: water
[4] = dose: 1200.0 mg/kg/injection, schedule: Q04DX003 (ip), vehicle: water
[5] = dose: 25.0 mg/kg/injection, schedule: Q04DX003 (ip), vehicle: water
[6] = dose: 50.0 mg/kg/injection, schedule: Q04DX003 (ip), vehicle: water
[7] = dose: 12.5 mg/kg/injection, schedule: Q04DX003 (ip), vehicle: water
[8] = dose: 300.0 mg/kg/injection, schedule: Q04DX003 (sc), vehicle: saline
[9] = dose: 150.0 mg/kg/injection, schedule: Q04DX003 (ip), vehicle: saline with Tween-80
[10] = dose: 300.0 mg/kg/injection, schedule: Q04DX003 (ip), vehicle: saline with Tween-80
[11] = dose: 75.0 mg/kg/injection, schedule: Q04DX003 (ip), vehicle: saline with Tween-80

## O=C1[C@@H]2C3C=CC([C@H]4C(=O)N(CO)C(=O)[C@@H]34)[C@@H]2C(=O)N1CO
dose: 100.0 mg/kg/injection, schedule: Q04DX003 (ip), vehicle: Klucel (hydroxypropylcellulose) (HPC)
  T/C: 78 % of control
dose: 200.0 mg/kg/injection, schedule: Q04DX003 (ip), vehicle: Klucel (hydroxypropylcellulose) (HPC)
  T/C: 52 % of control

## CN(C)c1nc(N(C)C)[n+]([O-])c(N(C)C)n1
dose: 200.0 mg/kg/injection, schedule: Q01DX010 (ip), vehicle: water
  T/C: 83 % of control
dose: 400.0 mg/kg/injection, schedule: Q01DX010 (ip), vehicle: water
  T/C: 107 % of control

## Nc1cc2c(cc1Br)-c1c(C(=O)O)cccc1C2O (centres undefined)
dose: 150.0 mg/kg/injection, schedule: Q04DX003 (ip), vehicle: sodium bicarbonate
  T/C: 97 % of control
dose: 300.0 mg/kg/injection, schedule: Q04DX003 (ip), vehicle: sodium bicarbonate
  T/C: 94 % of control
dose: 600.0 mg/kg/injection, schedule: Q04DX003 (ip), vehicle: sodium bicarbonate
  T/C: 101 % of control
dose: 1200.0 mg/kg/injection, schedule: Q04DX003 (ip), vehicle: sodium bicarbonate
  T/C: 92 % of control

## COc1cc2c(c(OC)c1O)-c1ccc(OC)c(=O)cc1[C@@H](NC(=O)C(F)(F)F)CC2
dose: 2.5 mg/kg/injection, schedule: Q04DX003 (ip), vehicle: Klucel (hydroxypropylcellulose) (HPC)
  T/C: 62 % of control
dose: 5.0 mg/kg/injection, schedule: Q04DX003 (ip), vehicle: Klucel (hydroxypropylcellulose) (HPC)
  T/C: 60 % of control
dose: 10.0 mg/kg/injection, schedule: Q04DX003 (ip), vehicle: Klucel (hydroxypropylcellulose) (HPC)
  T/C: 35 % of control
dose: 20.0 mg/kg/injection, schedule: Q04DX003 (ip), vehicle: Klucel (hydroxypropylcellulose) (HPC)
  T/C: 34 % of control

## CC(=O)C[n+]1ccccc1Sc1ccc(Cl)cc1
dose: 25.0 mg/kg/injection, schedule: Q04DX003 (ip), vehicle: saline with Tween-80
  T/C: 66 % of control
dose: 50.0 mg/kg/injection, schedule: Q04DX003 (ip), vehicle: saline with Tween-80
  T/C: 64 % of control
dose: 100.0 mg/kg/injection, schedule: Q04DX003 (ip), vehicle: saline with Tween-80
  T/C: 89 % of control

## CC(=O)NO
[1]
  T/C: 78 % of control
[2]
  T/C: 113 % of control
[3]
  T/C: 79 % of control
[4]
  T/C: 74 % of control

## COc1cccc2c1C(=O)C1=C(C2=O)c2c(O)cc(CO)cc2C(O)C1O (centres undefined)
dose: 6.25 mg/kg/injection, schedule: Q04DX003 (ip), vehicle: other
  T/C: 84 % of control
dose: 12.5 mg/kg/injection, schedule: Q04DX003 (ip), vehicle: other
  T/C: 102 % of control
dose: 25.0 mg/kg/injection, schedule: Q04DX003 (ip), vehicle: other
  T/C: 96 % of control

## COc1cc(C(C)c2cc3c(cc2OCCO)OCO3)cc(OC)c1OC (centres undefined)
dose: 150.0 mg/kg/injection, schedule: Q04DX003 (ip), vehicle: saline
  T/C: 69 % of control
dose: 300.0 mg/kg/injection, schedule: Q04DX003 (ip), vehicle: saline
  T/C: 65 % of control
dose: 600.0 mg/kg/injection, schedule: Q04DX003 (ip), vehicle: saline
  T/C: 21 % of control

## CC1=C(C(N)=O)C(c2ccccc2)NC(=S)N1 (centres undefined)
dose: 150.0 mg/kg/injection, schedule: Q04DX003 (ip), vehicle: Klucel (hydroxypropylcellulose) (HPC)
  T/C: 87 % of control

## CC1(O)C=CC(=O)C=C1
[5]
  T/C: 96 % of control
[6]
  T/C: 64 % of control

## Nc1ccc(S(=O)(=O)Nc2cnc3c(Cl)cccc3n2)cc1
dose: 150.0 mg/kg/injection, schedule: Q04DX003 (ip), vehicle: DMSO
  T/C: 103 % of control
dose: 300.0 mg/kg/injection, schedule: Q04DX003 (ip), vehicle: DMSO
  T/C: 49 % of control
dose: 600.0 mg/kg/injection, schedule: Q04DX003 (ip), vehicle: DMSO
  T/C: 75 % of control

## O=NNc1cnccn1
[7]
  T/C: 53 % of control and 74 % of control
[5]
  T/C: 26 % of control (2×) and 41 % of control
[6]
  T/C: 7 % of control and 8 % of control and 16 % of control

## CC[C@@H](C)[C@H]([C@H](CC(=O)N1CCC[C@@H]1[C@@H](OC)[C@H](C)C(=O)N[C@H](Cc1ccccc1)c1nccs1)OC)N(C)C(=O)[C@H](NC(=O)[C@@H](C(C)C)N(C)C)C(C)C
dose: 13.0 micrograms/kg/injection, schedule: Q04DX003 (ip), vehicle: saline + alcohol
  T/C: 61 % of control
dose: 26.0 micrograms/kg/injection, schedule: Q04DX003 (ip), vehicle: saline + alcohol
  T/C: 50 % of control
dose: 52.0 micrograms/kg/injection, schedule: Q04DX003 (ip), vehicle: saline + alcohol
  T/C: 14 % of control

## [Cl][Pt+2][Cl].[NH-]C1CCC1.[NH2-]
dose: 6.25 mg/kg/injection, schedule: Q04DX003 (sc), vehicle: saline
  T/C: -94 % of control
dose: 12.5 mg/kg/injection, schedule: Q04DX003 (sc), vehicle: saline
  T/C: -97 % of control

## COc1cc(Cc2nccc3cc(OC)c(OC)cc23)c(C(C)=O)cc1OC
[8]
  T/C: 54 % of control
dose: 600.0 mg/kg/injection, schedule: Q04DX003 (sc), vehicle: saline
  T/C: 68 % of control
dose: 1200.0 mg/kg/injection, schedule: Q04DX003 (sc), vehicle: saline
  T/C: 48 % of control

## [Cl][Pt][Cl].[NH-]C(CO)C(=O)O (centres undefined)
[7]
  T/C: 92 % of control
[5]
  T/C: 100 % of control
dose: 37.5 mg/kg/injection, schedule: Q04DX003 (ip), vehicle: water
  T/C: 57 % of control
[6]
  T/C: 100 % of control
dose: 75.0 mg/kg/injection, schedule: Q04DX003 (ip), vehicle: water
  T/C: 11 % of control
dose: 100.0 mg/kg/injection, schedule: Q04DX003 (ip), vehicle: water
  T/C: 16 % of control

## COc1cccc2c1C(=O)c1c(O)c3c(c(O)c1C2=O)CC(O)(C(=O)CO)CC3OC1CC(N)C(O)C(C)O1 (centres undefined)
dose: 25.0 mg/kg/injection, schedule: Q01DX010 (sc), vehicle: saline
  T/C: 41 % of control
dose: 50.0 mg/kg/injection, schedule: Q01DX010 (sc), vehicle: saline
  T/C: 22 % of control

## C1CC[N-]CC1.C1CC[N-]CC1.C1CC[N-]CC1.[Cl][Rh]([Cl])[Cl]
dose: 75.0 mg/kg/injection, schedule: Q04DX003 (sc), vehicle: saline
  T/C: 90 % of control
dose: 150.0 mg/kg/injection, schedule: Q04DX003 (sc), vehicle: saline
  T/C: 90 % of control
[8]
  T/C: 75 % of control

## CC(O)CCC(=O)c1ccoc1 (centres undefined)
dose: 3.75 mg/kg/injection, schedule: Q01DX010 (ip), vehicle: saline
  T/C: 191 % of control
dose: 7.5 mg/kg/injection, schedule: Q01DX010 (ip), vehicle: saline
  T/C: 95 % of control and 120 % of control
dose: 60.0 mg/kg/injection, schedule: Q01DX010 (ip), vehicle: saline
  T/C: 49 % of control

## CN(C)CCCN=c1c2ccccc2n(C)c2[nH]c(=O)n(C)c(=O)c12
dose: 25.0 mg/kg/injection, schedule: Q04DX003 (ip), vehicle: saline
  T/C: 112 % of control
dose: 50.0 mg/kg/injection, schedule: Q04DX003 (ip), vehicle: saline
  T/C: 82 % of control

## C=CCNC(=O)c1ccccc1SC(C)=O
[9]
  T/C: 93 % of control
[10]
  T/C: 99 % of control

## NCc1cc(O)c(O)c(O)c1
[1]
  T/C: 99 % of control
[2]
  T/C: 120 % of control
[3]
  T/C: 89 % of control
[4]
  T/C: 91 % of control

## CC(=O)O[C@H]1C(=O)[C@@]2(C)C(C(OC(=O)c3ccccc3)[C@]3(O)C[C@H](OC(=O)C(OC(=O)CN(C)C)C(NC(=O)c4ccccc4)c4ccccc4)C(C)=C1C3(C)C)C1(OC(C)=O)COC1C[C@@H]2O (some centres undefined)
dose: 1.88 mg/kg/injection, schedule: Q01DX009 (ip), vehicle: water
  T/C: 64 % of control
dose: 3.75 mg/kg/injection, schedule: Q01DX009 (ip), vehicle: water
  T/C: 5 % of control
dose: 5.9 mg/kg/injection, schedule: Q01DX009 (ip), vehicle: water
  T/C: -78 % of control
dose: 7.5 mg/kg/injection, schedule: Q01DX009 (ip), vehicle: water
  T/C: 4 % of control
dose: 8.9 mg/kg/injection, schedule: Q01DX009 (ip), vehicle: water
  T/C: -53 % of control
dose: 13.3 mg/kg/injection, schedule: Q01DX009 (ip), vehicle: water
  T/C: -100 % of control
dose: 15.0 mg/kg/injection, schedule: Q01DX009 (ip), vehicle: water
  T/C: -80 % of control
dose: 20.0 mg/kg/injection, schedule: Q01DX009 (ip), vehicle: water
  T/C: -100 % of control

## COc1cc2c[n+](C)c3c(c2cc1OC)Cc1cc2c(cc1-3)OCO2
[11]
  T/C: 102 % of control
[9]
  T/C: 35 % of control

## Cc1cc2c(C(C)C)c(O)c(O)c(C=NCCO)c2c(O)c1-c1c(C)cc2c(C(C)C)c(O)c(O)c(C=NCCO)c2c1O
[11]
  T/C: 111 % of control
[9]
  T/C: 86 % of control
[10]
  T/C: 58 % of control
dose: 600.0 mg/kg/injection, schedule: Q04DX003 (ip), vehicle: saline with Tween-80
  T/C: 97 % of control
dose: 1200.0 mg/kg/injection, schedule: Q04DX003 (ip), vehicle: saline with Tween-80
  T/C: 69 % of control
